# Reference: article PMC12311865, “In Vitro Evaluation of the Potential Interactions of Zearalenone-14-sulfate and Zearalenone-14-glucuronide with Human Cytochrome P450 Enzymes, Organic Anion Transporting Polypeptides, and ATP-Binding Cassette Multidrug Transporters” (ACS Omega, 2025)
# Assays:
# Assay type in all cases: biochemical
# MDR1 = target: T1, MDR1 (Homo sapiens, UniProt P08183); assay: MDR1 vanadate-sensitive ATPase activity assay; settings: up to 50 μM; Sf9 membrane vesicles
# T1 construct: made in house; host or cells: Sf9 insect cells (baculovirus)
# Protocol: (§1) ATPase activity was determined in Sf9 membrane vesicles containing human MDR1 or human BCRP prepared as described. − Appropriate amounts of vesicles (10 μg/50 μL) were used in the assays. Membrane vesicles were incubated with Mg-ATP (3 mM) for 25 min at 37 °C. Effects of the test compounds were examined up to 50 μM concentrations. […] ABC transporter function was determined as vanadate-sensitive ATPase activity. Liberated inorganic phosphate (Pi) was measured by a colorimetric reaction, as it has been reported. After 25 min, absorbance values were determined at 660 nm by a VictorX plate reader (PerkinElmer).
# BCRP [1] = target: T2, BCRP (Homo sapiens, UniProt Q9UNQ0); assay: BCRP-mediated LY vesicular transport (Sf9 membrane vesicles); settings: for inhibition at 10 min, 50 μM: human, read-out: inhibition of BCRP-driven vesicular uptake of LY
# T2 construct: made in house; host or cells: Sf9 insect cells (baculovirus)
# T2 sequence (Q9UNQ0 1-655): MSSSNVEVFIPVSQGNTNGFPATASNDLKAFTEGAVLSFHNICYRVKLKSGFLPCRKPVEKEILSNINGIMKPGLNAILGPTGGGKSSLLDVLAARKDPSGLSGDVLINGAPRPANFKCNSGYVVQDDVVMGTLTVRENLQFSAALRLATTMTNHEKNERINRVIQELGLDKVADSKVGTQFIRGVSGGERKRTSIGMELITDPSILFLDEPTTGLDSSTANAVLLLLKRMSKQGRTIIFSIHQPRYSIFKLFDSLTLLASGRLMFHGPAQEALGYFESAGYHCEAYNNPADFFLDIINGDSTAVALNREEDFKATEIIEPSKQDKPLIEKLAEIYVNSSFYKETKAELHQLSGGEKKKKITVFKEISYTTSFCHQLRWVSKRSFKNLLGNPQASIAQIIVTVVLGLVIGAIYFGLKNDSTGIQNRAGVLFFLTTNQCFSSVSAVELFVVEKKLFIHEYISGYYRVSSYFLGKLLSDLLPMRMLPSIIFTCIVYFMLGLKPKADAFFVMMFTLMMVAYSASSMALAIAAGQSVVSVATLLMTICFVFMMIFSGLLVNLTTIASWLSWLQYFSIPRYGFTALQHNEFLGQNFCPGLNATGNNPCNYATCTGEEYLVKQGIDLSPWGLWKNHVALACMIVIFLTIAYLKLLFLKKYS
# Protocol: Experiments were performed in insect membrane vesicles, as described previously. Briefly, human MDR1, BCRP, and MRP2 were expressed in Sf9 insect cells by baculoviruses. On the third day of infection, cells were collected and membrane vesicles were obtained by mechanical disruption and differential centrifugation. To get full activity for BCRP, the cholesterol levels of the vesicles were adjusted to the level of mammalian membranes. Vesicles were stored at −80 °C, and the total protein content of the preparations was measured by the Lowry method (used as a reference for the quantity). Membrane vesicles (50 μg protein/sample) were incubated at 37 °C for 10 min (without or with 4 mM Mg-ATP) in 50 μL volume in the presence of transporter-specific fluorescent substrates: N-methylquinidine (NMQ; 5 μM) for MDR1, lucifer yellow (LY; 10 μM) for BCRP, and 5(6)-carboxy-2′,7′-dichlorofluorescein (CDCF; 5 μM) for MRP2. […] ATP-dependent (4 mM) uptake of fluorescent substrates was examined in the presence of 0–50 μM concentrations of mycotoxins (ZEN, Z14S, or Z14GA). […] After incubation, samples were rapidly filtered and washed on a filter plate (MSFBN6B10; Millipore, Burlington, MA). Accumulated substrates in vesicles were solved back from the filter with 100 μL of SDS (10%) and centrifuged into another plate. A 100 μL volume of fluorescence stabilizer was added to the samples (DMSO for LY, 0.1 M H2SO4 for NMQ, and 0.1 M NaOH for CDCF). Fluorescence of samples was measured by plate readers (Victor X3 and Enspire PerkinElmer; Waltham, MA) at appropriate wavelengths (filters in the Victor X3 reader were 405/535 nm for LY and 492/635 nm for CDCF; while in the Enspire reader, NMQ was measured at 360/430 nm excitation/emission wavelengths). ABC-related transport was calculated by subtracting passive uptake measured without Mg-ATP from values measured in the presence of Mg-ATP.
# BCRP [2] = target: T2, BCRP; assay: BCRP vanadate-sensitive ATPase activity assay; settings: for effect on BCRP-dependent ATPase activity: up to 50 μM, Z14S effect seen even at 2 μM
# Protocol: as §1
# T1 sequence (P08183 whole entry): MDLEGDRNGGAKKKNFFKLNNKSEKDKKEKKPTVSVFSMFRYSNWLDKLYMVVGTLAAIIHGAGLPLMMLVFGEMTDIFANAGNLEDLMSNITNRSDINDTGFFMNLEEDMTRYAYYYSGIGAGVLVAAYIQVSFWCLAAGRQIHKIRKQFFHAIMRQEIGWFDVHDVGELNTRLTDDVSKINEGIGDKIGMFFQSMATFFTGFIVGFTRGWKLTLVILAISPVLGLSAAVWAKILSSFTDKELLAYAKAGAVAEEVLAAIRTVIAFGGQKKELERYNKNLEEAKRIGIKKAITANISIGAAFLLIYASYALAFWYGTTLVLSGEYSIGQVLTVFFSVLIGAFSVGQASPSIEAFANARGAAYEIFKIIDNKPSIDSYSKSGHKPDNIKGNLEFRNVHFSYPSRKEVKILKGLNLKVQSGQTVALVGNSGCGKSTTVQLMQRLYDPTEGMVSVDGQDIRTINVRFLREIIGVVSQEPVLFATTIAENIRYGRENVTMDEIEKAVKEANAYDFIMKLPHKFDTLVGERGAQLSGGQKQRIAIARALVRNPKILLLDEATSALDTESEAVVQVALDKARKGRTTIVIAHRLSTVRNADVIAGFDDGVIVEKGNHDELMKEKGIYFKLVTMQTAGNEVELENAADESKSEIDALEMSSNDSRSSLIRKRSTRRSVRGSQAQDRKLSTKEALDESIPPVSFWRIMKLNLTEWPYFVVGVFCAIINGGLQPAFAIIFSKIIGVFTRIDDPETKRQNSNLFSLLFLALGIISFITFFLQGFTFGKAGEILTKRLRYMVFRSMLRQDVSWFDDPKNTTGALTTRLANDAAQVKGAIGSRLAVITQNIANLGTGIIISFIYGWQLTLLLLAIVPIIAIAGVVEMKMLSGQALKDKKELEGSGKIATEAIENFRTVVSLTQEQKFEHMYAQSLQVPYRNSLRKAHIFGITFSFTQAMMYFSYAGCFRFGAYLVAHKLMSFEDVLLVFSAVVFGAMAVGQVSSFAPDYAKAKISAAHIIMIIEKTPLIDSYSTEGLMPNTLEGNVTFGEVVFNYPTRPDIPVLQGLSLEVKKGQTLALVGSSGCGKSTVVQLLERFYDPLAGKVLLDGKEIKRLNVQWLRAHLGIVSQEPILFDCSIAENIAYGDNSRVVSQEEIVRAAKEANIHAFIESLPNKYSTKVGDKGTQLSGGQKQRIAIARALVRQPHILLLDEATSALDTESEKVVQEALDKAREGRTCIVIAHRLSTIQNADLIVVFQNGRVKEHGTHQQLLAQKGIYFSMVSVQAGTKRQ
Structure (SMILES),effect on MDR1 ATPase activity (MDR1),IC50 (BCRP [1]) [µM],"inhibition at 10 min, 50 μM (BCRP [1]; LY 10 μM) [%]",effect on BCRP-dependent ATPase activity (BCRP [2]),effect on basal ATPase activity of BCRP (BCRP [2]; 50 μM),"effect on BCRP-driven vesicular uptake of LY (BCRP [1]; 0–50 μM, LY 10 μM)"
"C[C@H]1CCCC(=O)CCC/C=C/c2cc(OS(=O)(=O)O)cc(O)c2C(=O)O1 [Z14S, zearalenone-14-sulfate]",did not modify,4.4,> 90,moderate increase,–,–
"C[C@H]1CCCC(=O)CCC/C=C/c2cc(O)cc(O)c2C(=O)O1 [ZEN, Zearalenone]",considerable elevation even at 5 μM concentration,2.6,> 90,no relevant impact,slight inhibition,–
"C[C@H]1CCCC(=O)CCC/C=C/c2cc(O[C@@H]3O[C@H](C(=O)O)[C@@H](O)[C@H](O)[C@H]3O)cc(O)c2C(=O)O1 [Z14GA, Zearalenone-14-glucuronide]",did not modify,–,–,did not affect,–,weak inhibitory action
